Experimental data from patent US20100285959A1, “HERBICIDAL MIXTURES” (priority 2006, published 2010).

Key:
Assay in all cases: Test 14 field trial, preemergence, growth as percent of control
[1] = test system: ladysthumb smartweed (POLPE); type: in vivo, Polygonum persicaria
Text: (§1) Corn seeds (hybrid ‘Pioneer 31G96 RR’) were planted in mid spring season, 3.8 cm deep in a clay loam soil having 2% organic matter and a pH of 6.6. Plots were 6.1 m long by 3.0 m wide with rows spaced 76 cm apart. Seeds were spaced 15 cm apart within the rows. The field was managed using conventional tillage practices. […] Yellow nutsedge was only evaluated 19 and 28 days after application, and ivyleaf morningglory could only be evaluated 28 days after application. […] Results are the means of the three replicates. This growth inhibition data was converted to results in the form of “plant growth as a percent of control plant growth” using the calculation “100 minus growth inhibition”. […] For “growth as a percent of control” data, Colby's Equation calculates the expected additive effect of herbicidal mixtures having two active ingredients as follows:
(§2) Ga+b=GaGb/100 • wherein Ga+b is the growth as a percent of control of plants treated with the mixture expected from additive contribution of the individual components, • Ga is the observed growth as a percent of control of plants treated with the first active ingredient at the same use rate as in the mixture, and • Gb is the observed growth as a percent of control of plants treated with the second active ingredient at the same use rate as in the mixture. For mixtures having three active ingredients, Colby's Equation to calculate the expected additive effect of herbicidal mixtures is as follows:
(§3) Ga+b+c=GaGbGc/10,000 • wherein Ga and Gb are as defined above and • Ga+b+c is the growth as a percent of control of plants treated with the mixture expected from additive contribution of the individual components, and • Gc is the observed growth as a percent of control of plants treated with the third active ingredient at the same use rate as in the mixture. When these two forms of Colby's Equation are used, if the observed effects on weeds are less than the expected values, the mixture is synergistic.

giant ragweed (AMBTR) = type: in vivo, Ambrosia trifida
Text: as §1, §2, §3

yellow nutsedge (CYPES) = type: in vivo, Cyperus esculentus
Text: as §1, §2, §3

giant foxtail (SETFA) = type: in vivo, Setaria faberi
Text: as §1, §2, §3

jimsonweed (DATST) = type: in vivo, Datura stramonium
Text: as §1, §2, §3

velvetleaf (ABUTH) = type: in vivo, Abutilon theophrasti
Text: as §1, §2, §3

common ragweed (AMBEL) = type: in vivo, Ambrosia artemisiifolia
Text: as §1, §2, §3

[2] = test system: ivyleaf morningglory (IPOHE); type: in vivo, Ipomoea hederacea; conditions: 28 DAA
Text: as §1, §2, §3

CCS(=O)(=O)c1cccnc1S(=O)(=O)NC(=O)Nc1nc(OC)cc(OC)n1 [Rimsulfuron]
Obs growth % of control ([1]; 19 DAA, 12 g a.i./ha): 82%
Obs growth % of control ([1]; 19 DAA, 24 g a.i./ha): 58%
Obs growth % of control ([1]; 19 DAA, 36 g a.i./ha): 32%
Obs growth % of control ([1]; 28 DAA, 12 g a.i./ha): 100%
Obs growth % of control ([1]; 28 DAA, 24 g a.i./ha): 33%
Obs growth % of control ([1]; 28 DAA, 36 g a.i./ha): 35%
Obs growth % of control ([1]; 56 DAA, 12 g a.i./ha): 100%
Obs growth % of control (giant ragweed (AMBTR); 19 DAA, 12 g a.i./ha): 88%
Obs growth % of control (giant ragweed (AMBTR); 19 DAA, 24 g a.i./ha): 80%
Obs growth % of control (giant ragweed (AMBTR); 19 DAA, 36 g a.i./ha): 75%
Obs growth % of control (giant ragweed (AMBTR); 28 DAA, 12 g a.i./ha): 100%
Obs growth % of control (giant ragweed (AMBTR); 28 DAA, 24 g a.i./ha): 60%
Obs growth % of control (giant ragweed (AMBTR); 28 DAA, 36 g a.i./ha): 60%
Obs growth % of control (giant ragweed (AMBTR); 56 DAA, 12 g a.i./ha): 90%
Obs growth % of control (giant ragweed (AMBTR); 56 DAA, 24 g a.i./ha): 83%
Obs growth % of control (giant ragweed (AMBTR); 56 DAA, 36 g a.i./ha): 68%
Obs growth % of control (yellow nutsedge (CYPES); 19 DAA, 12 g a.i./ha): 85%
Obs growth % of control (yellow nutsedge (CYPES); 19 DAA, 24 g a.i./ha): 85%
Obs growth % of control (yellow nutsedge (CYPES); 19 DAA, 36 g a.i./ha): 70%
Obs growth % of control (yellow nutsedge (CYPES); 28 DAA, 12 g a.i./ha): 83%
Obs growth % of control (yellow nutsedge (CYPES); 28 DAA, 24 g a.i./ha): 60%
Obs growth % of control (yellow nutsedge (CYPES); 28 DAA, 36 g a.i./ha): 50%
Obs growth % of control (giant foxtail (SETFA); 19 DAA, 12 g a.i./ha): 32%
Obs growth % of control (giant foxtail (SETFA); 19 DAA, 24 g a.i./ha): 33%
Obs growth % of control (giant foxtail (SETFA); 19 DAA, 36 g a.i./ha): 7%
Obs growth % of control (giant foxtail (SETFA); 28 DAA, 12 g a.i./ha): 33%
Obs growth % of control (giant foxtail (SETFA); 28 DAA, 24 g a.i./ha): 9%
Obs growth % of control (giant foxtail (SETFA); 28 DAA, 36 g a.i./ha): 5%
Obs growth % of control (giant foxtail (SETFA); 56 DAA, 12 g a.i./ha): 70%
Obs growth % of control (giant foxtail (SETFA); 56 DAA, 24 g a.i./ha): 40%
Obs growth % of control (giant foxtail (SETFA); 56 DAA, 36 g a.i./ha): 28%
Obs growth % of control (jimsonweed (DATST); 19 DAA, 12 g a.i./ha): 100%
Obs growth % of control (jimsonweed (DATST); 19 DAA, 24 g a.i./ha): 93%
Obs growth % of control (jimsonweed (DATST); 19 DAA, 36 g a.i./ha): 85%
Obs growth % of control (jimsonweed (DATST); 28 DAA, 12 g a.i./ha): 100%
Obs growth % of control (jimsonweed (DATST); 28 DAA, 24 g a.i./ha): 62%
Obs growth % of control (jimsonweed (DATST); 28 DAA, 36 g a.i./ha): 48%
Obs growth % of control (jimsonweed (DATST); 56 DAA, 12 g a.i./ha): 100%
Obs growth % of control (jimsonweed (DATST); 56 DAA, 24 g a.i./ha): 92%
Obs growth % of control (jimsonweed (DATST); 56 DAA, 36 g a.i./ha): 92%
Obs growth % of control (velvetleaf (ABUTH); 19 DAA, 12 g a.i./ha): 78%
Obs growth % of control (velvetleaf (ABUTH); 19 DAA, 24 g a.i./ha): 62%
Obs growth % of control (velvetleaf (ABUTH); 19 DAA, 36 g a.i./ha): 52%
Obs growth % of control (velvetleaf (ABUTH); 28 DAA, 12 g a.i./ha): 53%
Obs growth % of control (velvetleaf (ABUTH); 28 DAA, 24 g a.i./ha): 13%
Obs growth % of control (velvetleaf (ABUTH); 28 DAA, 36 g a.i./ha): 15%
Obs growth % of control (velvetleaf (ABUTH); 56 DAA, 12 g a.i./ha): 93%
Obs growth % of control (velvetleaf (ABUTH); 56 DAA, 24 g a.i./ha): 65%
Obs growth % of control (velvetleaf (ABUTH); 56 DAA, 36 g a.i./ha): 62%
Obs growth % of control (common ragweed (AMBEL); 19 DAA, 12 g a.i./ha): 88%
Obs growth % of control (common ragweed (AMBEL); 19 DAA, 24 g a.i./ha): 80%
Obs growth % of control (common ragweed (AMBEL); 19 DAA, 36 g a.i./ha): 68%
Obs growth % of control (common ragweed (AMBEL); 28 DAA, 12 g a.i./ha): 100%
Obs growth % of control (common ragweed (AMBEL); 28 DAA, 24 g a.i./ha): 45%
Obs growth % of control (common ragweed (AMBEL); 28 DAA, 36 g a.i./ha): 33%
Obs growth % of control (common ragweed (AMBEL); 56 DAA, 12 g a.i./ha): 85%
Obs growth % of control (common ragweed (AMBEL); 56 DAA, 24 g a.i./ha): 63%
Obs growth % of control (common ragweed (AMBEL); 56 DAA, 36 g a.i./ha): 53%
Obs growth % of control ([2]; 12 g a.i./ha): 100%
Obs growth % of control ([2]; 24 g a.i./ha): 3%
Obs growth % of control ([2]; 36 g a.i./ha): 43%
